According to ChEMBL document CHEMBL4321794, “Discovery and Optimization of 2-Arylquinazolin-4-ones into a Potent and Selective Tankyrase Inhibitor Modulating Wnt Pathway Activity” (J Med Chem, 2019):
pIC50: −log10 of the molar value. Active and inactive are the calls of the source. The calls are words filed in the database; no cut-off is given here.

Assays:
[1] = Clearance in mouse; assay type: ADME, organism-based; conditions: in vivo
[2] = biological target: T1, Poly [ADP-ribose] polymerase 1 (Homo sapiens, UniProt P09874); experiment: Inhibition of N-terminal GST-tagged recombinant full length human PARP1 expressed in Baculovirus infected Sf9 cells using biotinylated substrate after 1 hr by chemiluminescence method
[3] = Intrinsic clearance in human hepatocytes assessed per million cells; assay type: ADME, cell-based, Hepatocyte; conditions: read-out: CLH
Mus musculus [4] = experiment: Ex vivo inhibition of tankyrase 1/2 in human DLD1 cells xenografted in immunodeficient athymic nude mouse assessed as increase in tankyrase level in tumor lysates at 10 mg/kg, po administered via gavage measured after 12 hrs by luminex based bead assay; assay type: functional, organism-based; conditions: Neoplasm, Lysate
[5] = Time at which free-drug concentration exceeds in vitro cellular EC50 for inhibition of tankyrase 1/2 in human DLD1 cells assessed as increase in axin2 accumulation in mouse xenografted with human DLD1 at 30 mg/kg, po administered via gavage; assay type: organism-based; conditions: in vivo
[6] = Half-life in mouse; assay type: ADME, organism-based; conditions: in vivo
[7] = Intrinsic clearance in mouse liver microsomes assessed per mg protein in presence of NADPH by UPLC analysis; assay type: ADME, Microsome; conditions: read-out: CLH
Mus musculus [8] = experiment: Ex vivo inhibition of tankyrase 1/2 in human DLD1 cells xenografted in immunodeficient athymic nude mouse assessed as increase in tankyrase level in tumor lysates at 10 mg/kg, po administered via gavage by luminex based bead assay; assay type: functional, organism-based; conditions: Neoplasm, Lysate, TDE = time-dependent effect
[9] = Apparent permeability across apical to basolateral side in human Caco2 cells at 1 uM after 2 hrs by LC-MS/MS analysis; assay type: ADME, cell-based; conditions: Caco-2
[10] = biological target: T2, Protein mono-ADP-ribosyltransferase PARP15 (Homo sapiens, UniProt Q460N3); experiment: Inhibition of human N-terminal GST-tagged PARP15 (221 to 444 residues) expressed in Escherichia coli using biotinylated substrate by chemiluminescence method
T2 sequence (Q460N3 whole entry): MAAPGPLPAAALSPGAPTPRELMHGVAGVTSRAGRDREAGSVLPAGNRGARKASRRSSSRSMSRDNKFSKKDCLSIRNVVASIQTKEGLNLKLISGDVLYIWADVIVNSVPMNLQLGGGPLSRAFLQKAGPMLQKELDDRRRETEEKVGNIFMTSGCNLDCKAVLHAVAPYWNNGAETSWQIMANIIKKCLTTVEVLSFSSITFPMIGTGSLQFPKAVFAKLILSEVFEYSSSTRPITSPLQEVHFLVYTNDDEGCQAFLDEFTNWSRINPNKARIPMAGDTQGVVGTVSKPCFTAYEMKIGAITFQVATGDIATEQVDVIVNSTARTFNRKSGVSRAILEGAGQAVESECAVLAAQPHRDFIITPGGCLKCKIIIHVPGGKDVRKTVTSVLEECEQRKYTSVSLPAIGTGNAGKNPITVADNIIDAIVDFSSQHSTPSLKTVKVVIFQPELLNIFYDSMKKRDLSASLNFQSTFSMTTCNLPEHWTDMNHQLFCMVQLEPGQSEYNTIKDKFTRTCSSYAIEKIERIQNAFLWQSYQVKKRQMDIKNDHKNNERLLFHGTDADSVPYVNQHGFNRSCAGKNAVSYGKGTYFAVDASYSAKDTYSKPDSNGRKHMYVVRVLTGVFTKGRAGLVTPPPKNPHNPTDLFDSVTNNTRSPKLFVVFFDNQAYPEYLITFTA

[11] = biological target: T3, Protein mono-ADP-ribosyltransferase PARP8 (Homo sapiens, UniProt Q8N3A8); experiment: Inhibition of human recombinant PARP8 by chemiluminescence method
T3 sequence (Q8N3A8 whole entry): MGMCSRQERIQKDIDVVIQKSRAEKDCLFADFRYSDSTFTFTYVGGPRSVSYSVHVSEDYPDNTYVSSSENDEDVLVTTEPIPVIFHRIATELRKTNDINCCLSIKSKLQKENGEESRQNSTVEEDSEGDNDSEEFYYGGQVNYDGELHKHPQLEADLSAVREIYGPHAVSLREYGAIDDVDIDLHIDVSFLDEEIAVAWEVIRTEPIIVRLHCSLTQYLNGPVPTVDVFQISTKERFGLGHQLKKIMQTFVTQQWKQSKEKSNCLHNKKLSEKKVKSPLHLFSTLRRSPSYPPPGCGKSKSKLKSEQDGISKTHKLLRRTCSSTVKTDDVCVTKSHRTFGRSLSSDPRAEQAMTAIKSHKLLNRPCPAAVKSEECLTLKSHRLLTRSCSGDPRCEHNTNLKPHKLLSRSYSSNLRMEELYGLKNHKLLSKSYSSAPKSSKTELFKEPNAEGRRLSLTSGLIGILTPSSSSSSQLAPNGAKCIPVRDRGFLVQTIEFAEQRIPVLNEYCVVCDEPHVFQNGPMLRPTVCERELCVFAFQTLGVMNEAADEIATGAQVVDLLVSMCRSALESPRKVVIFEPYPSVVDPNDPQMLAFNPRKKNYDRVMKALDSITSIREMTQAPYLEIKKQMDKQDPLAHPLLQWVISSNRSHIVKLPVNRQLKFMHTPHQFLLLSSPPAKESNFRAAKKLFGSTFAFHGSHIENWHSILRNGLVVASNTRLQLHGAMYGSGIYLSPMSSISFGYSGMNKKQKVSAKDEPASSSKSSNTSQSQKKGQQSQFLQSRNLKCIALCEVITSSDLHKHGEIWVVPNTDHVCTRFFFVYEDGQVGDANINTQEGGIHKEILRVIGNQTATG

[12] = Time at which free-drug concentration exceeds in vitro cellular EC50 for inhibition of tankyrase 1/2 in human DLD1 cells assessed as increase in axin2 accumulation in mouse xenografted with human DLD1 at 90 mg/kg, po administered via gavage; assay type: organism-based; conditions: in vivo
[13] = biological target: T1, Poly [ADP-ribose] polymerase 1; experiment: Inhibition of recombinant human full-length Myc/His-tagged Parp-1 expressed in baculovirus infected Sf21 insect cells assessed as reduction in auto-PARsylation using activated DNA as substrate incubated for 150 mins in presence of NAD and bio-NAD as co-substrate by TR-FRET assay
Mus musculus [14] = experiment: Ex vivo inhibition of tankyrase 1/2 in human DLD1 cells xenografted in immunodeficient athymic nude mouse assessed as increase in axin-2 level in tumor lysates at 10 to 90 mg/kg, po administered via gavage by luminex based bead assay; assay type: functional, organism-based; conditions: Neoplasm, Lysate, TDE = time-dependent effect
Mus musculus [15] = experiment: Ex vivo inhibition of tankyrase 1/2 in human DLD1 cells xenografted in immunodeficient athymic nude mouse assessed as increase in axin-2 level in tumor lysates at 10 mg/kg, po administered via gavage measured after 12 hrs by luminex based bead assay; assay type: functional, organism-based; conditions: Neoplasm, Lysate
[16] = Time at which free-drug concentration exceeds in vitro cellular EC50 for inhibition of tankyrase 1/2 in human DLD1 cells assessed as increase in axin2 accumulation in mouse xenografted with human DLD1 at 10 mg/kg, po administered via gavage; assay type: organism-based; conditions: in vivo
[17] = Intrinsic clearance in human liver microsomes assessed per mg protein in presence of NADPH by UPLC analysis; assay type: ADME, Microsome; conditions: read-out: CLH

T1 sequence (P09874 whole entry): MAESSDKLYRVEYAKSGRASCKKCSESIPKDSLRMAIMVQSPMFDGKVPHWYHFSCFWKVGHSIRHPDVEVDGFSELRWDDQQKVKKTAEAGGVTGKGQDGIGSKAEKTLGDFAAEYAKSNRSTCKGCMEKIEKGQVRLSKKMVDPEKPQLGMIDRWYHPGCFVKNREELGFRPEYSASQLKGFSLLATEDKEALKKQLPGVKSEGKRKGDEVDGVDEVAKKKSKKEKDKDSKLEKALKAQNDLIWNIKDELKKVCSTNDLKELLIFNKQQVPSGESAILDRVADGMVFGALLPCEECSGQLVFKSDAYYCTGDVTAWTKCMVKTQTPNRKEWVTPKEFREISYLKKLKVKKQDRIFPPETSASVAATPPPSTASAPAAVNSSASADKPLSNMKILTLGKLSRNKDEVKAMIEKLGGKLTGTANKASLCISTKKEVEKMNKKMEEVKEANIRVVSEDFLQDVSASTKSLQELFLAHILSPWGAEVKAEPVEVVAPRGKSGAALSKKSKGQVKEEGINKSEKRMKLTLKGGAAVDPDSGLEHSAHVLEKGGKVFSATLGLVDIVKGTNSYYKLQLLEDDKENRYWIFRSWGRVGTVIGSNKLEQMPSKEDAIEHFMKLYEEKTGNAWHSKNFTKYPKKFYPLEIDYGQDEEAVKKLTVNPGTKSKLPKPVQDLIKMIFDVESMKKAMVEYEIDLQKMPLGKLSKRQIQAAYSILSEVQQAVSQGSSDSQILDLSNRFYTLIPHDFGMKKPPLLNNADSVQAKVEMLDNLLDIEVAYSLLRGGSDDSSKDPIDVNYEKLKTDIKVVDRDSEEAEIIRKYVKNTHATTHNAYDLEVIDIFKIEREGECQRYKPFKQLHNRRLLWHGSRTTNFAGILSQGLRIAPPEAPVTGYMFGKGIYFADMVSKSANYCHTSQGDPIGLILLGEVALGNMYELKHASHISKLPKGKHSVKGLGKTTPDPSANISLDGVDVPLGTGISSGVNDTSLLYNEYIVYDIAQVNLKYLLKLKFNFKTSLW

clearance [1]: 6.83 mL/min/kg
pIC50 [2]: 6.15
hepatocyte CLint [3]: 1.25 µL/min/1e6 cells
T>fEC50 [5]: >= 12 hr
half-life [6]: 1.4 h
microsomal CLint [7]: 22 µL/min/mg
Papp A→B at 2 h, 1 µM [9]: 40 ×10⁻⁶ cm/s
pIC50 [10]: < 5.00
pIC50 [11]: < 5.00
T>fEC50 [12]: >= 12 hr
pIC50 [13]: 6.11
T>fEC50 [16]: >= 12 hr
microsomal CLint [17]: < 10 µL/min/mg
Structure (SMILES): CC(C)(O)c1ccc(-c2nc3c(F)cc(F)cc3c(=O)[nH]2)cc1
inhibition (Mus musculus [4]): Active
inhibition (Mus musculus [8]): Tde
inhibition (Mus musculus [14]): Tde
inhibition (Mus musculus [15]): Active
